Source: patent publication US20130109049A1, “Method of Establishing a Fungal Nail Infection” (NOVABIOTICS LIMITED, priority 2009, published 2013)

Experiments:
T. rubrum NCPF0118 = test: In vitro MIC100 testing; assay type: cell-based, Trichophyton rubrum; settings: versus T. rubrum NCPF0118; revealed in separate tests
[1] = test system: Trichophyton rubrum strain NCPF0118; test: Ex vivo human nail fragment model, treatment of established infection (cfu recovered); assay type: cell-based
Experimental: For antifungal efficacy studies with human toe nails, a solution of 50% (w/v) PEG 8000 (Sigma-Aldrich; Cat No P2139) was prepared by autoclaving and then diluting with sterile 50% (w/v) urea solution (Sigma-Aldrich; Cat No 51457). This solution was mixed thoroughly by vortexing and allowed to stabilise at 50° C. for up to 2 h. After stabilisation, the temperature was allowed to drop to below 40° C. and a concentrated, filter-sterilised solution of Novexatin® (NP213), dissolved in deionised water was added. Final concentrations of PEG 8000 of 50% (w/v), urea of 0-20% (w/v) and Novexatin® (NP213) of 0-10% (w/v) were used in the experiments described below.
On arrival, the cultures were transferred to a Petri dish containing sterile Sabouraud Dextrose agar (Sigma-Aldrich; Cat No 84088, or equivalent) and grown for up to 7 d at 30° C. The resulting growth was scraped off and re-suspended in Sabouraud's liquid medium (Oxoid; Cat No CM 147, or equivalent) containing […] dimethyl sulfoxide (DMSO) as cryoprotectant to create a culture stock. The fungus was stored in 0.5 ml aliquots in 2 ml screw-capped polypropylene vials (Cryovials) at −80° C. Seven days prior to experimental use, 50 μl of the culture stock was used to inoculate a slope of Potato Dextrose agar (Merck; Cat No VM556130 609, or equivalent), which was incubated at 30° C. for up to 7 d. The surface of the resulting growth was gently perturbed in 3 ml of sterile distilled/deionised water. After filtration through 2 layers of sterile surgical gauze to remove debris and larger clumps of biomass, the absorbance of the resultant spore suspension was measured at 530 nm, then adjusted to the 0.5 MacFarland standard (OD approx. 0.15)^2.
Human toe nails were obtained from a podiatrist in Aberdeen following a successful application to the Grampian Local Research Ethics Committee. […] Large toe nails were cut into 4 pieces, each approximately 1 cm^2 in area, using nail clippers. Nails of normal thickness (≦2 mm) were chosen. The 4 fragments cut from each single nail were placed in quadrants marked on Petri-dishes containing phosphate buffered saline rendered solid with 1.2% (w/v) Technical Agar No. 3 (Oxoid; Cat No LP0013, or equivalent), subsequently referred to as PBS agar. The nail fragments were of irregular shape, so to ensure that each nail received the appropriate amount of the treatment solutions, the surface area was measured by photographing the nails over graph paper and determining the number of 1mm^2 squares covered by each nail. The thickness of the nails was measured with a micrometer and nails distributed among treatment groups, to avoid nail thickness providing an additional experimental variable.
Twenty four nail fragments from 6 whole large toenails were each inoculated with 10 μl of a spore suspension of T. rubrum NCPF0118 which was prepared as described above. The inoculum was applied to the ventral side of the nail (i.e. the side next to the skin in situ). The nails were incubated for 7 d at 30° C. to allow the fungus to infect the nail tissue. After this pre-incubation period, 12 of the fragments were assigned to each of 2 different treatment protocols, involving daily treatment with 2 different vehicle solutions, each containing a control and 3 different concentrations of Novexatin® (NP213). These vehicle solutions were: 50% (w/v) PEG 8000, and 50% (w/v) PEG 8000 plus 20% (w/v) urea. The concentrations of Novexatin® (NP213) studied were 0%, 1%, 5% and 10% (w/v). The solutions were applied at a volume of 10 μl/cm^2, corrected for the surface area of the different nail fragments as described above. The applied solution was spread over the dorsal side of the nail, to mimic the intended clinical treatment and the ventral side of the nail rested on the agar surface. Each time the nails were treated, they were transferred to a new sterile Petri dish containing PBS agar to minimise any build-up of fungal growth on the agar. Nail fragments were treated daily for 28 days. […]

[2] = Experiment 1, 5% (w/v), absence of urea, daily 28 days

With “7 to 200-mer (SEQ ID NO: 3) polyarginine [Novexatin® (NP213)]” the “concentration equal to 100× the MIC100” value (T. rubrum NCPF0118) was ~10 % (w/v), the “killing of T. rubrum NCPF0118 on nail fragments (dose dependence)” value ([1]; Experiment 1, 0%, 1%, 5%, 10% (w/v) in 50% PEG 8000 with or without 20% urea, daily for 28 days) was “dose-dependent” and the “reduction in fungal survival” value ([1]; Experiment 1, 1% (w/v), daily 28 days) was “approximately 1 log10”. The “fungi isolated with 20% (w/v) urea added to the vehicle, versus vehicle alone” value ([1]; Experiment 1, 1% (w/v), not statistically significant) was “fewer fungi than in vehicle alone”, the “fungal colonies isolated from nail fragments” value ([1]; Experiment 1, 5% (w/v) with 20% (w/v) urea in vehicle, daily 28 days) was “no colonies were isolated” and the “decrease in survival of the fungus compared to controls” value [1, 2] was “approximately 3 log10”. The “fungal colonies isolated from nail fragments” value [1, 2] was “a small number of colonies were detected” and the “recoverable fungal growth after treatment” value ([1]; Experiment 5, 10% (w/v), approximately 100×MIC100, 14 d or 28 d, daily) was “no recoverable fungal growth”.
